From patent US9456604B2, “Herbicide composition” (Syngenta Crop Protection, LLC, priority 2008, dated 2016)

Key:
Assay type in all cases: in vivo
[1] = system: Panicum dichotomiflorum (PANDI); test: Greenhouse trial, effect of pH on selectivity: weed; settings: early POST, 200 l/ha
Description: (§1) A greenhouse trial was conducted to look at the effect of pH on the selectivity of an emulsifiable concentrate composition comprising compound B (compound of formula wherein R^1=methoxy-propyl and R^2═CHF2). Applications were made early POST using four corn varieties and eight weeds (Broad leaf weeds: Amaranthus retroflexus (AMARE), Ipomoea hederacea (IPOHE), Polygonum convolvulus (POLCO) Grasses: Digitaria sanuinalis (DIGSA), Echinochloa crus-galli (ECHCG), Eriochloa villosa (ERBVI), Panicum dichotomiflorum (PANDI), Setaria viridus (SETVI)). The spray volume applied was 200 l/ha. Phytotoxicity evaluations were made 8 days after application (DAA) and/or 28 DAA. Results are provided as % phytotoxicity observed wherein 0=no visible phytotoxicity to 100=complete phytotoxicity.

[2] = system: Ipomoea hederacea (IPOHE); test: as above; settings: early POST, 200 l/ha
Description: as §1

[3] = system: Polygonum convolvulus (POLCO); test: as above; settings: early POST, 200 l/ha
Description: as §1

[4] = system: Eriochloa villosa (ERBVI); test: as above; settings: early POST, 200 l/ha
Description: as §1

[5] = system: Setaria viridus (SETVI); test: as above; settings: early POST, 200 l/ha
Description: as §1

[6] = system: Digitaria sanuinalis (DIGSA); test: as above; settings: early POST, 200 l/ha
Description: as §1

[7] = system: Echinochloa crus-galli (ECHCG); test: as above; settings: early POST, 200 l/ha
Description: as §1

[8] = system: Amaranthus retroflexus (AMARE); test: as above; settings: early POST, 200 l/ha
Description: as §1

[9] = system: corn; test: Greenhouse trial, effect of pH on selectivity: four corn varieties; settings: for % phytotoxicity observed, Corn "Cecilia" 8 DAA / % phytotoxicity observed, Corn "Lorenzo" 8 DAA / % phytotoxicity observed, Corn "Marista" 8 DAA / % phytotoxicity observed, Corn "Blizzard" 28 DAA / % phytotoxicity observed, Corn "Cecilia" 28 DAA / % phytotoxicity observed, Corn "Lorenzo" 28 DAA / % phytotoxicity observed, Corn "Marista" 28 DAA / % phytotoxicity observed, Corn "Blizzard" 8 DAA: early POST, 200 l/ha
Description: as §1

**Q.** For `COCCCc1nc(C(F)F)ccc1C(=O)C1C(=O)C2CCC(C2)C1=O` (stereo not drawn) [Compound B], which “% phytotoxicity observed, PANDI 8 DAA” value ([1]; 100 g ai/ha, pH 3, 8 DAA) is on record?
**A.** 98%

**Q.** What about the “% phytotoxicity observed, PANDI 8 DAA” value ([1]; 100 g ai/ha, pH 8, 8 DAA) of the same compound?
**A.** 98%

**Q.** What about the “% phytotoxicity observed, PANDI 8 DAA” value ([1]; 200 g ai/ha, pH 3, 8 DAA) of the same compound?
**A.** 100%

**Q.** What about the “% phytotoxicity observed, PANDI 8 DAA” value ([1]; 200 g ai/ha, pH 8, 8 DAA) of the same compound?
**A.** 100%

**Q.** What about the “% phytotoxicity observed, IPOHE 8 DAA” value ([2]; 100 g ai/ha, pH 3, 8 DAA) of the same compound?
**A.** 80%

**Q.** What about the “% phytotoxicity observed, IPOHE 8 DAA” value ([2]; 100 g ai/ha, pH 8, 8 DAA) of the same compound?
**A.** 85%

**Q.** And the “% phytotoxicity observed, IPOHE 8 DAA” value ([2]; 200 g ai/ha, pH 3, 8 DAA)?
**A.** 95%

**Q.** What about the “% phytotoxicity observed, IPOHE 8 DAA” value ([2]; 200 g ai/ha, pH 8, 8 DAA) of the same compound?
**A.** 90%

**Q.** What about the “% phytotoxicity observed, POLCO 8 DAA” value ([3]; 100 g ai/ha, pH 3, 8 DAA) of the same compound?
**A.** 80%

**Q.** And the “% phytotoxicity observed, POLCO 8 DAA” value ([3]; 100 g ai/ha, pH 8, 8 DAA)?
**A.** 70%

**Q.** What about the “% phytotoxicity observed, POLCO 8 DAA” value ([3]; 200 g ai/ha, pH 3, 8 DAA) of the same compound?
**A.** 95%

**Q.** What about the “% phytotoxicity observed, POLCO 8 DAA” value ([3]; 200 g ai/ha, pH 8, 8 DAA) of the same compound?
**A.** 90%

**Q.** What about the “% phytotoxicity observed, ERBVI 8 DAA” value ([4]; 100 g ai/ha, pH 3, 8 DAA) of the same compound?
**A.** 80%

**Q.** And the “% phytotoxicity observed, ERBVI 8 DAA” value ([4]; 100 g ai/ha, pH 8, 8 DAA)?
**A.** 98%

**Q.** What about the “% phytotoxicity observed, ERBVI 8 DAA” value ([4]; 200 g ai/ha, pH 3, 8 DAA) of the same compound?
**A.** 90%

**Q.** What about the “% phytotoxicity observed, ERBVI 8 DAA” value ([4]; 200 g ai/ha, pH 8, 8 DAA) of the same compound?
**A.** 98%

**Q.** And the “% phytotoxicity observed, SETVI 8 DAA” value ([5]; 100 g ai/ha, pH 3, 8 DAA)?
**A.** 90%

**Q.** And the “% phytotoxicity observed, SETVI 8 DAA” value ([5]; 100 g ai/ha, pH 8, 8 DAA)?
**A.** 90%

**Q.** What about the “% phytotoxicity observed, SETVI 8 DAA” value ([5]; 200 g ai/ha, pH 3, 8 DAA) of the same compound?
**A.** 100%

**Q.** And the “% phytotoxicity observed, SETVI 8 DAA” value ([5]; 200 g ai/ha, pH 8, 8 DAA)?
**A.** 98%

**Q.** What about the “% phytotoxicity observed, DIGSA 8 DAA” value ([6]; 100 g ai/ha, pH 3, 8 DAA) of the same compound?
**A.** 85%

**Q.** And the “% phytotoxicity observed, DIGSA 8 DAA” value ([6]; 100 g ai/ha, pH 8, 8 DAA)?
**A.** 85%

**Q.** What about the “% phytotoxicity observed, DIGSA 8 DAA” value ([6]; 200 g ai/ha, pH 3, 8 DAA) of the same compound?
**A.** 100%

**Q.** What about the “% phytotoxicity observed, DIGSA 8 DAA” value ([6]; 200 g ai/ha, pH 8, 8 DAA) of the same compound?
**A.** 95%

**Q.** What about the “% phytotoxicity observed, ECHCG 8 DAA” value ([7]; 100 g ai/ha, pH 3, 8 DAA) of the same compound?
**A.** 80%

**Q.** What about the “% phytotoxicity observed, ECHCG 8 DAA” value ([7]; 100 g ai/ha, pH 8, 8 DAA) of the same compound?
**A.** 95%

**Q.** What about the “% phytotoxicity observed, ECHCG 8 DAA” value ([7]; 200 g ai/ha, pH 3, 8 DAA) of the same compound?
**A.** 98%

**Q.** What about the “% phytotoxicity observed, ECHCG 8 DAA” value ([7]; 200 g ai/ha, pH 8, 8 DAA) of the same compound?
**A.** 95%

**Q.** And the “% phytotoxicity observed, AMARE 8 DAA” value ([8]; 100 g ai/ha, pH 3, 8 DAA)?
**A.** 98%

**Q.** What about the “% phytotoxicity observed, AMARE 8 DAA” value ([8]; 100 g ai/ha, pH 8, 8 DAA) of the same compound?
**A.** 95%

**Q.** What about the “% phytotoxicity observed, AMARE 8 DAA” value ([8]; 200 g ai/ha, pH 3, 8 DAA) of the same compound?
**A.** 100%

**Q.** And the “% phytotoxicity observed, AMARE 8 DAA” value ([8]; 200 g ai/ha, pH 8, 8 DAA)?
**A.** 98%

**Q.** And the “% phytotoxicity observed, Corn "Cecilia" 8 DAA” value ([9]; 100 g ai/ha, pH 3, 8 DAA)?
**A.** 5%

**Q.** And the “% phytotoxicity observed, Corn "Lorenzo" 8 DAA” value ([9]; 100 g ai/ha, pH 3, 8 DAA)?
**A.** 20%

**Q.** What about the “% phytotoxicity observed, Corn "Marista" 8 DAA” value ([9]; 100 g ai/ha, pH 3, 8 DAA) of the same compound?
**A.** 5%

**Q.** And the “% phytotoxicity observed, Corn "Blizzard" 28 DAA” value ([9]; 100 g ai/ha, pH 3, 28 DAA)?
**A.** 10%

**Q.** And the “% phytotoxicity observed, Corn "Cecilia" 28 DAA” value ([9]; 100 g ai/ha, pH 3, 28 DAA)?
**A.** 10%

**Q.** And the “% phytotoxicity observed, Corn "Lorenzo" 28 DAA” value ([9]; 100 g ai/ha, pH 3, 28 DAA)?
**A.** 25%

**Q.** What about the “% phytotoxicity observed, Corn "Marista" 28 DAA” value ([9]; 100 g ai/ha, pH 3, 28 DAA) of the same compound?
**A.** 5%

**Q.** And the “% phytotoxicity observed, Corn "Cecilia" 8 DAA” value ([9]; 100 g ai/ha, pH 8, 8 DAA)?
**A.** 5%

**Q.** What about the “% phytotoxicity observed, Corn "Lorenzo" 8 DAA” value ([9]; 100 g ai/ha, pH 8, 8 DAA) of the same compound?
**A.** 20%

**Q.** And the “% phytotoxicity observed, Corn "Marista" 8 DAA” value ([9]; 100 g ai/ha, pH 8, 8 DAA)?
**A.** 5%

**Q.** What about the “% phytotoxicity observed, Corn "Blizzard" 28 DAA” value ([9]; 100 g ai/ha, pH 8, 28 DAA) of the same compound?
**A.** 10%

**Q.** And the “% phytotoxicity observed, Corn "Cecilia" 28 DAA” value ([9]; 100 g ai/ha, pH 8, 28 DAA)?
**A.** 10%

**Q.** And the “% phytotoxicity observed, Corn "Lorenzo" 28 DAA” value ([9]; 100 g ai/ha, pH 8, 28 DAA)?
**A.** 20%

**Q.** What about the “% phytotoxicity observed, Corn "Marista" 28 DAA” value ([9]; 100 g ai/ha, pH 8, 28 DAA) of the same compound?
**A.** 5%

**Q.** What about the “% phytotoxicity observed, Corn "Blizzard" 8 DAA” value ([9]; 200 g ai/ha, pH 3, 8 DAA) of the same compound?
**A.** 25%

**Q.** And the “% phytotoxicity observed, Corn "Cecilia" 8 DAA” value ([9]; 200 g ai/ha, pH 3, 8 DAA)?
**A.** 20%

**Q.** And the “% phytotoxicity observed, Corn "Lorenzo" 8 DAA” value ([9]; 200 g ai/ha, pH 3, 8 DAA)?
**A.** 30%

**Q.** What about the “% phytotoxicity observed, Corn "Marista" 8 DAA” value ([9]; 200 g ai/ha, pH 3, 8 DAA) of the same compound?
**A.** 30%

**Q.** And the “% phytotoxicity observed, Corn "Blizzard" 28 DAA” value ([9]; 200 g ai/ha, pH 3, 28 DAA)?
**A.** 20%

**Q.** And the “% phytotoxicity observed, Corn "Cecilia" 28 DAA” value ([9]; 200 g ai/ha, pH 3, 28 DAA)?
**A.** 20%

**Q.** And the “% phytotoxicity observed, Corn "Lorenzo" 28 DAA” value ([9]; 200 g ai/ha, pH 3, 28 DAA)?
**A.** 30%

**Q.** What about the “% phytotoxicity observed, Corn "Marista" 28 DAA” value ([9]; 200 g ai/ha, pH 3, 28 DAA) of the same compound?
**A.** 15%

**Q.** And the “% phytotoxicity observed, Corn "Blizzard" 8 DAA” value ([9]; 200 g ai/ha, pH 8, 8 DAA)?
**A.** 20%

**Q.** And the “% phytotoxicity observed, Corn "Cecilia" 8 DAA” value ([9]; 200 g ai/ha, pH 8, 8 DAA)?
**A.** 20%

**Q.** And the “% phytotoxicity observed, Corn "Lorenzo" 8 DAA” value ([9]; 200 g ai/ha, pH 8, 8 DAA)?
**A.** 25%

**Q.** And the “% phytotoxicity observed, Corn "Marista" 8 DAA” value ([9]; 200 g ai/ha, pH 8, 8 DAA)?
**A.** 5%

**Q.** And the “% phytotoxicity observed, Corn "Blizzard" 28 DAA” value ([9]; 200 g ai/ha, pH 8, 28 DAA)?
**A.** 10%

**Q.** What about the “% phytotoxicity observed, Corn "Cecilia" 28 DAA” value ([9]; 200 g ai/ha, pH 8, 28 DAA) of the same compound?
**A.** 10%

**Q.** And the “% phytotoxicity observed, Corn "Lorenzo" 28 DAA” value ([9]; 200 g ai/ha, pH 8, 28 DAA)?
**A.** 25%

**Q.** What about the “% phytotoxicity observed, Corn "Marista" 28 DAA” value ([9]; 200 g ai/ha, pH 8, 28 DAA) of the same compound?
**A.** 5%

**Q.** And the “phytotoxicity observed in corn when applied at pH 8 rather than pH 3” value ([9]; pH 8 versus pH 3, greenhouse trial, Table C)?
**A.** significantly decreased
